Structures are written as SMILES.

One assay addresses b-Raf (V600E) (Homo sapiens (Human), UniProt P15056, V600E). Nature of the assay: In vitro Raf activity determination (Alpha Screen, phospho-MEK), b-Raf (V600E). It counts as biochemical. The note with it: ATP 10 μM, 60 min pre-incubation, 3 hours reaction. An excerpt:
The activity of a compound according to the present invention can be assessed by well-known in vitro & in vivo methods. Raf inhibition data provided herein was obtained using the following procedures.
Sf9 cells co-expressing both proteins were lysed and subjected to immobilized nickel chromatography and eluted with Imidazole. A second column (StrepII binding column) was used and eluted with desthiobiotin. Protein Tags were removed using Prescission enzyme and the protein was further purified using a flowthrough step to remove tags.
Full length MEK1 with an inactivating K97R ATP binding site mutation is utilized as a RAF substrate. The MEK1 cDNA was subcloned with an N-terminal (his)6 tag into a vector for E. Coli expression. The MEK1 substrate was purified from E. Coli lysate by nickel affinity chromatography followed by anion exchange. The final MEK1 preparation was biotinylated (Pierce EZ-Link Sulfo-NHS-LC-Biotin) and concentrated.
The plate was incubated for 60 minutes at room temperature. […] The additions were carried out under dark conditions to protect the detection beads from light. A lid was placed on top of the plate and incubated for 1 hour at room temperature, after which the luminescence was read on a PerkinElmer Envision instrument.

Another assay addresses C-Raf FL (Homo sapiens (Human), UniProt P04049, Y340E/Y341E). As to the kind of experiment: In vitro Raf activity determination (Alpha Screen, phospho-MEK), C-Raf FL (full length, Y340E/Y341E). The note with it: ATP 1 μM; 60 min pre-incubation; 1 hour reaction; column head does not say FL or TR. In kind it is biochemical. A digest of the protocol: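 Read-out is AlphaScreen luminescence using rabbit anti-p-MEK with protein A beads after EDTA stop, with IC50 fitted by non-linear regression. Reaction: Sf9-derived C-Raf plus biotinylated E. coli MEK1 K97R substrate, pH 7.5 Tris/MgCl2/DTT buffer, compound preincubated 60 min at room temperature.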

Sequence of C-Raf FL (P04049 whole entry Y340E/Y341E): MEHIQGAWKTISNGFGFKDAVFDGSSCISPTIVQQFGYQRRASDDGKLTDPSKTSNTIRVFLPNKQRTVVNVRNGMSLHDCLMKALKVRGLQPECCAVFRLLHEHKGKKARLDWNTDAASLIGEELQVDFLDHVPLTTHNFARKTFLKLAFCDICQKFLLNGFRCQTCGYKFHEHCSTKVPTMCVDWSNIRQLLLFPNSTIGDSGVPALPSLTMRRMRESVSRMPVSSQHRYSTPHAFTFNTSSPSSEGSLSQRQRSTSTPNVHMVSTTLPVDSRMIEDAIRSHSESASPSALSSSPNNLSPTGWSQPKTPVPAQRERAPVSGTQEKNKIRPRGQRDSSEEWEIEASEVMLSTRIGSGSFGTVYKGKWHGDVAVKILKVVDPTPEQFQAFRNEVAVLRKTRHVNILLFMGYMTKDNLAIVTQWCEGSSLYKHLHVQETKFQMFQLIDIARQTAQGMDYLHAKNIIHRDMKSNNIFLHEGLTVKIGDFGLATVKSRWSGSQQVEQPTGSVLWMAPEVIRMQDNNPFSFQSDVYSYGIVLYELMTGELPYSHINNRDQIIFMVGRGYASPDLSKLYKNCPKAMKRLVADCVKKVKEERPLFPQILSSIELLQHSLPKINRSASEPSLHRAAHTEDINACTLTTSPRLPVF
Sequence of C-Raf FL (P63104 whole entry partner): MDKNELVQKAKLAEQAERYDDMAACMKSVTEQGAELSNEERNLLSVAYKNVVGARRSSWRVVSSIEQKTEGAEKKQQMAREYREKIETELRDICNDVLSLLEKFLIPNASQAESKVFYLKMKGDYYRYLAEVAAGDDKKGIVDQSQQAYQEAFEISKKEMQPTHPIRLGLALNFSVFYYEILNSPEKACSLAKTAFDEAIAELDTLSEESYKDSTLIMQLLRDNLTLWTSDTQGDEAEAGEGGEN
Sequence of b-Raf (V600E) (P15056 whole entry V600E): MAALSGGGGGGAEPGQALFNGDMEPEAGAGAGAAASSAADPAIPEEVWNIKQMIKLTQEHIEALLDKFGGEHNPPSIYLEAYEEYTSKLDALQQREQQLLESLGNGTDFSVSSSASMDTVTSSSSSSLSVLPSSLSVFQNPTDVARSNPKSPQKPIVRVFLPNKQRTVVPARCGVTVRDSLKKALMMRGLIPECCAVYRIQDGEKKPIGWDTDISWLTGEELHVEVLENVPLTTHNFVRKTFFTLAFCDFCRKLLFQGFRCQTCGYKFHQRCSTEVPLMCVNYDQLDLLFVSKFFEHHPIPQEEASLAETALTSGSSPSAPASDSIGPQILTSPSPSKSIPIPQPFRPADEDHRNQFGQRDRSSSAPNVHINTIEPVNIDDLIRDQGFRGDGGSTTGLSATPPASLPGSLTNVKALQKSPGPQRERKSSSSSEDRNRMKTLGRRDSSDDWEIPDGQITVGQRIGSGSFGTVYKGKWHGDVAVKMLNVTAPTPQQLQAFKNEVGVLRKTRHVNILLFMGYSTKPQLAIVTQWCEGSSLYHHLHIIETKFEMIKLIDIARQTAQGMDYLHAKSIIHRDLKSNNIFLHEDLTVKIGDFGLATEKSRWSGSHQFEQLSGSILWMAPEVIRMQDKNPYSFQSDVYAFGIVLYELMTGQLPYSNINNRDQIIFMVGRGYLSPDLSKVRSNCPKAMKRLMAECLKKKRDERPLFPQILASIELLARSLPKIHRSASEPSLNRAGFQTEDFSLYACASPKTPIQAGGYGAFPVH

A word on the IC50: it is the concentration at which inhibition is half-maximal. A low value points to greater potency. In the case of `COc1ncc(-c2cc(NC(=O)c3cc(C(F)(F)F)ccn3)cnc2C)cc1C1(O)COC1` [Example 78, N-(5′-(3-hydroxyoxetan-3-yl)-6′-methoxy-2-methyl-[3,3′-bipyridin]-5-yl)-4-(trifluoromethyl)picolin-amide], the IC50 at b-Raf (V600E) worked out at 23.5 nM; on C-Raf FL, 3.23 nM.
The matching figures for `CCOc1ncc(-c2cc(NC(=O)c3ccnc(C(F)(F)F)c3)cnc2C)cc1C1(C)COC1` [Example 63, N-(6′-ethoxy-2-methyl-5′-(3-methyloxetan-3-yl)-[3,3′-bipyridin]-5-yl)-2-(trifluoromethyl)isonicotin-amide]: 0.613 nM and 0.183 nM.
The matching figures for `Cc1ncc(NC(=O)c2ccnc(C(C)(F)F)c2)cc1-c1cccc(C2COC2)c1` [Example 70, 2-(1,1-difluoroethyl)-N-(6-methyl-5-(3-(oxetan-3-yl)phenyl)pyridin-3-yl)isonicotinamide]: 12.9 nM and 1.59 nM.
In the case of `COc1ncc(-c2cc(NC(=O)c3ccnc(C(C)(F)F)c3)cnc2C)cc1C1(O)COC1` [Example 77, 2-(1,1-difluoroethyl)-N-(5′-(3-hydroxyoxetan-3-yl)-6′-methoxy-2-methyl-[3,3′-bipyridin]-5-yl)isonicotinamide], the values for the IC50 on b-Raf (V600E) and at C-Raf FL were 24 nM and 3.57 nM, respectively.
Taken in the same sequence, the figures for `Cc1ccc(NC(=O)c2ccnc(C(C)(C)O)c2)cc1-c1cc(C2(C)COC2)c2nccn2n1` [Example 62, 2-(2-hydroxypropan-2-yl)-N-(4-methyl-3-(8-(3-methyloxetan-3-yl)imidazo[1,2-b]pyridazin-6-yl)phenyl)isonicotinamide] were 3.77 nM and 0.707 nM.
As to `COc1ncc(-c2cc(NC(=O)c3cc(C(C)(C)N)cc(C(F)(F)F)c3)ccc2C)cc1C1(C(F)F)COC1` [Example 112, 3-(2-aminopropan-2-yl)-N-(3-(5-(3-(difluoromethyl)oxetan-3-yl)-6-methoxypyridin-3-yl)-4-methylphenyl)-5-(trifluoromethyl)benzamide], the IC50 against b-Raf (V600E) amounted to 1.21 nM; against C-Raf FL, 0.225 nM.
For the compound `COc1ncc(-c2cc(NC(=O)c3cc(C(F)(F)F)ccn3)cnc2C)cc1C1(F)COC1` [Example 83, N-(5′-(3-fluorooxetan-3-yl)-6′-methoxy-2-methyl-[3,3′-bipyridin]-5-yl)-4-(trifluoromethyl)picolin-amide], the IC50 at b-Raf (V600E) was found to be 0.0593 nM; against C-Raf FL, 0.0136 nM.
Taken in the same sequence, the figures for `COc1ncc(-c2cc(C(=O)Nc3cccc(C(C)(C)C#N)c3)ccc2C)cc1C1(O)COC1` [Example 146, N-(3-(2-cyanopropan-2-yl)phenyl)-3-(5-(3-hydroxyoxetan-3-yl)-6-methoxypyridin-3-yl)-4-methylbenzamide] were 3.31 nM and 0.801 nM.
Take `COc1ncc(-c2cc(NC(=O)c3ccnc(C(C)(C)F)c3)ccc2C)cc1C1(C#N)COC1` [Example 111, N-(3-(5-(3-cyanooxetan-3-yl)-6-methoxypyridin-3-yl)-4-methylphenyl)-2-(2-fluoropropan-2-yl)isonicotinamide]: the IC50 against b-Raf (V600E) worked out at 2.75 nM; against C-Raf FL, 0.716 nM.
The matching figures for `Cc1ncc(NC(=O)c2ccnc(C(F)(F)F)c2)cc1-c1cnc(OCCO)c(C2(F)COC2)c1` [Example 38, N-(5′-(3-fluorooxetan-3-yl)-6′-(2-hydroxyethoxy)-2-methyl-[3,3′-bipyridin]-5-yl)-2-(trifluoromethyl)isonicotin-amide]: 4.84 nM and 0.729 nM.
The matching figures for `COc1ncc(-c2cc(NC(=O)c3ccnc(C(C)(C)F)c3)cnc2C)cc1C1(C(F)F)COC1` [Example 42, N-(5′-(3-(difluoromethyl)oxetan-3-yl)-6′-methoxy-2-methyl-[3,3′-bipyridin]-5-yl)-2-(2-fluoropropan-2-yl)isonicotinamide]: 1.42 nM and 0.243 nM.
Taken in the same sequence, the figures for `CCC(F)(F)c1cc(C(=O)Nc2cnc(C)c(-c3cnc(OC)c(C4(C#N)COC4)c3)c2)ccn1` [Example 117, N-(5′-(3-cyanooxetan-3-yl)-6′-methoxy-2-methyl-[3,3′-bipyridin]-5-yl)-2-(1,1-difluoropropyl)isonicotin-amide] were 7.19 nM and 1.43 nM.
On to `Cc1ncc(NC(=O)c2ccnc(C(C)(C)C#N)c2)cc1-c1cnc(OC2CCOCC2)c(C2(O)COC2)c1` [Example 34, 2-(2-cyanopropan-2-yl)-N-(5′-(3-hydroxyoxetan-3-yl)-2-methyl-6′-((tetrahydro-2H-pyran-4-yl)oxy)-[3,3′-bipyridin]-5-yl)isonicotinamide], for which the IC50 at b-Raf (V600E) was 20.5 nM; against C-Raf FL it was 7.63 nM.
The matching figures for `CCOc1ncc(-c2cc(NC(=O)c3ccnc(C(F)(F)F)c3)ccc2C)cc1C1(O)COC1` [Example 124, N-(3-(6-ethoxy-5-(3-hydroxyoxetan-3-yl)pyridin-3-yl)-4-methylphenyl)-2-(trifluoromethyl)isonicotin-amide]: 2.28 nM and 0.372 nM.
The matching figures for `Cc1ncc(NC(=O)c2cccc(C(F)(F)F)c2)cc1-c1cc(C2(F)COC2)c(=O)n(CCCO)c1` [Example 44, N-(5′-(3-fluorooxetan-3-yl)-1′-(3-hydroxypropyl)-2-methyl-6′-oxo-1′,6′-dihydro-[3,3′-bipyridin]-5-yl)-3-(trifluoromethyl)benzamide]: 67.9 nM and 8.63 nM.
Regarding `CCOc1nnc(-c2cc(NC(=O)c3ccnc(C(C)(C)F)c3)cnc2C)cc1C1(C)COC1` [Example 128, N-(5-(6-ethoxy-5-(3-methyloxetan-3-yl)pyridazin-3-yl)-6-methylpyridin-3-yl)-2-(2-fluoropropan-2-yl)isonicotinamide], the half-maximal inhibitory concentration (IC50) against b-Raf (V600E) was 2.15 nM; against C-Raf FL, 0.633 nM.
Turning to `COc1ncc(-c2cc(NC(=O)c3cc(C(C)(C)F)ccn3)ccc2C)cc1C1(O)COC1` [Example 95, 4-(2-fluoropropan-2-yl)-N-(3-(5-(3-hydroxyoxetan-3-yl)-6-methoxypyridin-3-yl)-4-methylphenyl)picolinamide], the IC50 against b-Raf (V600E) amounted to 3.92 nM; against C-Raf FL, 0.514 nM.
Taken in the same sequence, the figures for `CCOc1ncc(-c2cc(NC(=O)c3ccnc(C(C)(F)F)c3)ccc2C)cc1C1(O)COC1` [Example 123, 2-(1,1-difluoroethyl)-N-(3-(6-ethoxy-5-(3-hydroxyoxetan-3-yl)pyridin-3-yl)-4-methylphenyl)isonicotin-amide] were 1.22 nM and 0.165 nM.
As for `COc1ncc(-c2cc(NC(=O)c3cc(C(C)(C)N)cc(C(F)(F)F)c3)cnc2C)cc1C1(CF)COC1` [Example 109, 3-(2-aminopropan-2-yl)-N-(5′-(3-(fluoromethyl)oxetan-3-yl)-6′-methoxy-2-methyl-[3,3′-bipyridin]-5-yl)-5-(trifluoromethyl)benzamide], the results for the IC50 against b-Raf (V600E) and at C-Raf FL were 9.5 nM and 2.24 nM, respectively.
The matching figures for `COc1ncc(-c2cc(NC(=O)c3ccnc(C(C)(C)C#N)c3)ccc2C)cc1C1(F)COC1` [Example 30, 2-(2-cyanopropan-2-yl)-N-(3-(5-(3-fluorooxetan-3-yl)-6-methoxypyridin-3-yl)-4-methylphenyl)isonicotin-amide]: 1.3 nM and 0.229 nM.
For the compound `COc1ncc(-c2cc(NC(=O)c3ccnc(C(F)(F)F)c3)cnc2C)cc1C1(C#N)COC1` [Example 115, N-(5′-(3-cyanooxetan-3-yl)-6′-methoxy-2-methyl-[3,3′-bipyridin]-5-yl)-2-(trifluoromethyl)isonicotin-amide], the IC50 against b-Raf (V600E) was 7.01 nM; at C-Raf FL it was 1.06 nM.
The matching figures for `COc1ncc(-c2cc(NC(=O)c3ccnc(C(C)(F)F)c3)ccc2C)cc1C1(O)COC1` [Example 74, 2-(1,1-difluoroethyl)-N-(3-(5-(3-hydroxyoxetan-3-yl)-6-methoxypyridin-3-yl)-4-methylphenyl)isonicotin-amide]: 2.07 nM and 0.36 nM.
In the case of `Cc1ccc(NC(=O)c2ccnc(C(F)(F)F)c2)cc1-c1cnc(OC2CCOCC2)c(C2(O)COC2)c1` [Example 35, N-(3-(5-(3-hydroxyoxetan-3-yl)-6-((tetrahydro-2H-pyran-4-yl)oxy)pyridin-3-yl)-4-methylphenyl)-2-(trifluoromethyl)isonicotin-amide], the IC50 against b-Raf (V600E) is 0.966 nM; on C-Raf FL it was 0.297 nM.
Regarding `Cc1ccc(NC(=O)c2ccnc(C(C)(C)C#N)c2)cc1-c1cccc(C2(C)COC2)c1` [Example 27, 2-(2-cyanopropan-2-yl)-N-(6-methyl-3′-(3-methyloxetan-3-yl)-[1,1′-biphenyl]-3-yl)isonicotinamide], the values for the half-inhibitory concentration (IC50) on b-Raf (V600E) and at C-Raf FL were 1210 nM and 263 nM, respectively.
Taken in the same sequence, the figures for `COc1ncc(-c2cc(NC(=O)c3cc(C(C)(C)O)ccn3)ccc2C)cc1C1(F)COC1` [Example 96, N-(3-(5-(3-fluorooxetan-3-yl)-6-methoxypyridin-3-yl)-4-methylphenyl)-4-(2-hydroxypropan-2-yl)picolinamide] were 4.17 nM and 0.482 nM.
